Data from patent publication US10653637B2, “Preventives or remedies for hepatopathy” (priority 2003, dated 2020).

Assays:
HGF mRNA = test: Expression of HGF mRNA in liver (real time RT-PCR); assay type: in vivo, rat; details: ghrelin 30 μg/kg s.c., DMN-induced hepatic fibrosis rats
Method: (§1) Amount of expression of hepatocyte proliferation marker (PCNA) and HGF
(§2) Amounts of expression of a PCNA mRNA and a HGF mRNA in the liver after subcutaneous injection of a physiological saline and ghrelin to DMN-induced hepatic fibrosis rats were measured by the real time RT-PCR method.

[1] = tested on: Wistar male rats after 70% hepatectomy; test: Liver weight after hepatectomy under 40% restricted diet; assay type: in vivo, rat; details: ghrelin 30 μg/kg s.c. two times a day for 3 days after 70% hepatectomy, four days after
Method: Liver Weight after Hepatectomy
Seventy % of liver was excised under anesthesia in Wistar male rats, and 30 μg/kg of ghrelin or a physiological saline was subcutaneously injected two times a day for 3 days under 40% restricted diet. Four days after, rat liver was isolated, and the liver weight was measured.

[2] = tested on: DMN-induced hepatic fibrosis/liver cirrhosis model; test: Ghrelin administration in DMN-induced hepatic fibrosis/liver cirrhosis model (survival rate); assay type: in vivo, rat; details: DMN-treated rats
Method: Ghrelin administration experiment using dimethylnitrosoamine (DMN)-induced hepatic fibrosis/liver cirrhosis model (Estimation of survival rate).
A hepatic fibrosis/liver cirrhosis rat model to be induced by DMN was prepared, rat ghrelin was subcutaneously injected, and the effect on hepatopathy was investigated.
Upon use, a dilution in which DMN (manufactured by Wako Pure Chemical Industries, Ltd.) was diluted with a physiological saline solution (manufactured by Otsuka Pharmaceutical Co., Ltd., physiological saline solution described in the Japanese Pharmacopoeia) to 1% concentration (v/v) was prepared, and this was intraperitoneafly administered to male rats (4 weeks old) so that DMN became 1 mL/kg. Administration was performed once a day, for consecutive three days in one week, and administration was repeated for 6 weeks, and the first time administration date was regarded as day 1.
Rat ghrelin (purchased from Peptide Institute Inc., Japan) was added to 5 weight % mannitol as a solvent to a concentration of 1 mg/mL, this was dispensed every necessary amount per one time, and freezing-stored at about −80° C. until its use. Upon use, this was thawed, and diluted with a physiological saline solution to a concentration of 30 μg/mL and 3 μg/mL to obtain a dosing solution. […]

rat hepatocytes = test: Rat hepatocyte proliferation promoting activity (ki-67 immunostaining) after one week of repeated administration; assay type: in vivo; details: ghrelin 10 μg/kg i.v. two times a day for 7 days; for Positive ratio (ki-67): % printed in b244 only; for Number of ki-67 positive cells: among 231±27 hepatocytes, eight places of liver section
Method: Rat hepatocyte proliferation promoting activity by repeated administration of ghrelin for one week
10 μg/kg of ghrelin was repeatedly administered intravenously to Wistar male rats two times a day for 7 days and, on the next day from administration completion, liver was isolated and fixed. Then, ki-67 protein as a peptide which is expressed at cell growth phase was immunostained.
For quantatively assessing hepatocyte proliferation activity by ghrelin, eight places of the liver section of one case of the physiological saline-administered group and one case of the ghrelin-administered group were arbitrarily selected, and among about 200 hepatocytes in a visual field, the number of ki-67 positive cells was counted under a microscope.

PCNA mRNA = test: Expression of hepatocyte proliferation marker PCNA mRNA in liver (real time RT-PCR); assay type: in vivo, rat; details: ghrelin 30 μg/kg s.c., DMN-induced hepatic fibrosis rats
Method: as §1, §2

Wistar male rats = test: Organ blood flow (microspheres); assay type: in vivo, rat; details: ghrelin 30 μg/kg s.c., under anesthesia; for Hepatic blood flow / Spleen blood flow / Stomach blood flow: mean ± standard deviation, 6 rats per group
[3] = tested on: DMN-induced hepatic fibrosis rat; test: Ghrelin administration in DMN-induced hepatic fibrosis/liver cirrhosis model (organ weight, hematology, serum biochemistry); assay type: in vivo; details: 35 days, DMN treatment
Method: Ghrelin administration experiment using DMN-induced hepatic fibrosis/liver cirrhosis model (Estimation of various parameters)
According to the same manner as that of Example 1 except that administration days were changed from 8 weeks to 35 days, an experiment was performed, and the effect of rat ghrelin on hepatopathy was estimated from a viewpoint of organ weight, hematology and serum biochemistry. A DMN-untreated group (normal rat) was used as a control group.

[4] = ghrelin 3 μg/kg s.c. once a day
[5] = ghrelin 3 μg/kg s.c. once a day, mean±S.E.
[6] = ghrelin 30 μg/kg s.c. once a day
[7] = ghrelin 30 μg/kg s.c. once a day, listed as ghrelin
[8] = ghrelin 30 μg/kg s.c. once a day, mean±S.E.
[9] = ghrelin 30 μg/kg s.c. once a day, mean±S.E., listed as ghrelin
[10] = ghrelin administration, dose not given

## Ghrelin
HGF mRNA
  HGF mRNA (amount of expression in the liver): 2.025 ± 0.595
HGF mRNA; listed as ghrelin
  HGF mRNA (amount of expression in the liver): increased
[1]
  Liver weight: 2.464 ± 0.133
[1]; listed as ghrelin
  Liver weight: the liver weight was increased
[2]; ghrelin 3 μg/kg s.c. once a day from day 1 over 8 weeks
  survived at 56 days: 75%
[2]; ghrelin 30 μg/kg s.c. once a day from day 1 over 8 weeks
  survival at 56 days: all cases survived
Rat hepatocytes
  Positive ratio (ki-67): 9.28 ± 3.26%
  Number of ki-67 positive cells: 20.9 ± 6.1
Rat hepatocytes; listed as ghrelin
  Positive ratio (ki-67): 9.28±3.26%
  Number of ki-67 positive cells: 20.9±6.1
PCNA mRNA
  PCNA mRNA (amount of expression in the liver): 2.083 ± 0.533
PCNA mRNA; listed as ghrelin
  PCNA mRNA (amount of expression in the liver): tended to be increased
Wistar male rats
  Hepatic blood flow: 1.049 ± 0.414 mL/min/kg
  Spleen blood flow: 1.099 ± 0.264 mL/min/kg
  Stomach blood flow: 1.064 ± 0.486 mL/min/kg
Wistar male rats; listed as ghrelin
  Hepatic blood flow: increased
  Spleen blood flow: increased
  Stomach blood flow: increased
Wistar male rats; versus physiological saline
  blood flow in jejunum: a tendency of blood flow increase
[3]; [4]
  Ascites (appearance frequency): 2/7
  Erythrocyte: 6.4 ± 0.2 ×10^6/μL
  Fibrinogen: 166 ± 9.5 mg/dL
  Hepaplastin time: 86.2 ± 11.8 s
  Leukocyte: 7.3 ± 0.6 ×10^3/μL
  Platelet: 52.3 ± 6.2 ×10^4/μL
  Spleen weight increase as compared with normal rats: more than 2 fold
[3]; [5]
  Δ liver weight: 13.6 ± 0.7 g
  Δ spleen weight: 2.20 ± 0.08 g
[3]; ghrelin 3 μg/kg s.c. once a day, mean±S.E., listed as ghrelin
  Δ liver weight (g): reduced as compared with a normal rat
[3]; [6]
  Ascites (appearance frequency): 0/7
  Erythrocyte: 6.8 ± 0.3 ×10^6/μL
  Fibrinogen: 207 ± 16.3 mg/dL
  Hepaplastin time: 77.8 ± 3.2 s
  Leukocyte: 6.6 ± 1.2 ×10^3/μL
  Platelet: 89.6 ± 5.5 ×10^4/μL
[3]; [7]
  Ascites (appearance frequency): ascites did not appear
  Erythrocyte: returned to a normal level
  Leukocyte: returned to a normal level
  Platelet: the number of platelets was recovered
[3]; [8]
  Δ liver weight: 14.3 ± 0.6 g
  Δ spleen weight: 1.83 ± 0.12 g
[3]; [9]
  Δ liver weight (g): reduction in the liver weight was suppressed
  Δ spleen weight (g): increase was slightly suppressed
[3]; [10]
  hepaplastin time (in words): tended to be normalized
  serum fibrinogen (in words): a tendency that fibrinogen was recovered to normalization
